Assay: xn = mol fraction of the nth substance listed
Conditions: 101 kPa, Liquid; for speed of sound: Frequency=2 MHz, Linear variable-path acoustic interferometer; for viscosity: Oscillating disk viscometry; for mass density: Vibrating tube method

C[NH+](C)C.O=S(=O)([O-])O [trimethylammonium hydrogen sulfate] + C[S+](C)[O-]
Conditions	mass density [kg/m3]	speed of sound [m/s]	viscosity [mPa·s]
298.15 K, x1 = 0.013	1102.89	1498	2.07
298.15 K, x1 = 0.0356	1115.76	1499	2.23
298.15 K, x1 = 0.0539	1125.92	1501	2.36
298.15 K, x1 = 0.0982	1149.81	1504	2.62
298.15 K, x1 = 0.1259	1164.24	1507	2.75
298.15 K, x1 = 0.1608	1181.78	1511	2.91
298.15 K, x1 = 0.1982	1199.92	1514	3.09
298.15 K, x1 = 0.2422	1220.26	1519	3.3
298.15 K, x1 = 0.2956	1243.91	1522	3.52
298.15 K, x1 = 0.3855	1281.02	1528	3.84
298.15 K, x1 = 0.4611	1309.82	1533	4.07
298.15 K, x1 = 0.545	1339.48	1536	4.3
298.15 K, x1 = 0.6387	1370.13	1542	4.51
298.15 K, x1 = 0.7076	1391.08	1546	4.64
298.15 K, x1 = 0.7823	1412.52	1548	4.78
298.15 K, x1 = 0.8444	1429.25	1552	4.86
298.15 K, x1 = 0.907	1445.39	1556	4.95
298.15 K, x1 = 0.9524	1456.38	1559	5.02
298.15 K, x1 = 1	1467.58	1564	5.1
303.15 K, x1 = 0.013	1099.96	1475	1.89
303.15 K, x1 = 0.0356	1112.84	1477	2.03
303.15 K, x1 = 0.0539	1122.95	1479	2.15
303.15 K, x1 = 0.0982	1146.81	1485	2.39
303.15 K, x1 = 0.1259	1161.18	1488	2.54
303.15 K, x1 = 0.1608	1178.69	1492	2.69
303.15 K, x1 = 0.1982	1196.87	1496	2.85
303.15 K, x1 = 0.2422	1217.02	1501	3.02
303.15 K, x1 = 0.2956	1240.65	1506	3.22
303.15 K, x1 = 0.3855	1277.68	1514	3.51
303.15 K, x1 = 0.4611	1306.38	1522	3.71
303.15 K, x1 = 0.545	1336.01	1528	3.88
303.15 K, x1 = 0.6387	1366.49	1532	4.05
303.15 K, x1 = 0.7076	1387.36	1538	4.15
303.15 K, x1 = 0.7823	1408.73	1540	4.26
303.15 K, x1 = 0.8444	1425.42	1545	4.32
303.15 K, x1 = 0.907	1441.51	1551	4.38
303.15 K, x1 = 0.9524	1452.45	1556	4.43
303.15 K, x1 = 1	1463.57	1560	4.48
308.15 K, x1 = 0.013	1093.72	1462	1.75
308.15 K, x1 = 0.0356	1106.81	1466	1.88
308.15 K, x1 = 0.0539	1116.99	1469	1.99
308.15 K, x1 = 0.0982	1141.18	1476	2.23
308.15 K, x1 = 0.1259	1155.67	1478	2.35
308.15 K, x1 = 0.1608	1173.53	1484	2.51
308.15 K, x1 = 0.1982	1191.94	1490	2.67
308.15 K, x1 = 0.2422	1212.56	1494	2.82
308.15 K, x1 = 0.2956	1236.49	1500	3
308.15 K, x1 = 0.3855	1274.01	1510	3.24
308.15 K, x1 = 0.4611	1303.22	1516	3.41
308.15 K, x1 = 0.545	1333.32	1524	3.54
308.15 K, x1 = 0.6387	1364.4	1530	3.68
308.15 K, x1 = 0.7076	1385.63	1534	3.73
308.15 K, x1 = 0.7823	1407.49	1538	3.81
308.15 K, x1 = 0.8444	1424.52	1544	3.85
308.15 K, x1 = 0.907	1440.98	1547	3.88
308.15 K, x1 = 0.9524	1452.15	1552	3.92
308.15 K, x1 = 1	1463.5	1556	3.94
313.15 K, x1 = 0.013	1089.1	1447	1.64
313.15 K, x1 = 0.0356	1102.07	1449	1.75
313.15 K, x1 = 0.0539	1112.21	1452	1.85
313.15 K, x1 = 0.0982	1136.31	1460	2.06
313.15 K, x1 = 0.1259	1150.73	1464	2.17
313.15 K, x1 = 0.1608	1168.35	1471	2.31
313.15 K, x1 = 0.1982	1186.62	1476	2.45
313.15 K, x1 = 0.2422	1207.12	1483	2.56
313.15 K, x1 = 0.2956	1230.97	1490	2.7
313.15 K, x1 = 0.3855	1268.16	1501	2.88
313.15 K, x1 = 0.4611	1297.1	1510	3
313.15 K, x1 = 0.545	1326.92	1516	3.08
313.15 K, x1 = 0.6387	1357.69	1525	3.14
313.15 K, x1 = 0.7076	1378.66	1530	3.16
313.15 K, x1 = 0.7823	1400.24	1536	3.18
313.15 K, x1 = 0.8444	1417.09	1540	3.18
313.15 K, x1 = 0.907	1433.37	1545	3.18
313.15 K, x1 = 0.9524	1444.43	1549	3.17
313.15 K, x1 = 1	1455.63	1552	3.16

— the NIST ThermoML archive (doi:10.1016/j.jct.2012.11.014)
